Data as given in patent US6355673B1, “Substituted diaminocarboxylic acids” (Aventis Pharma Deutschland GmbH, priority 1997, dated 2002).

Tests used:
[1] = biological target: T1, stromelysin (MMP-3) (Homo sapiens, UniProt P08254); assay: Enzyme inhibition of the catalytic domain of human stromelysin (fluorogenic substrate); format: biochemical; settings: 15 min preincubation, pH=6.5, fluorescence 328 nm (ex)/393 nm (em)
T1 construct: enzymatic activity of the catalytic domains of human stromelysin and of neutrophil collagenase; made in house
Procedure: (§1) Preparation and determination of the enzymatic activity of the catalytic domains of human stromelysin and of neutrophil collagenase.
(§2) The enzymes stromelysin (MMP-3) and neutrophil collagenase (MMP-8) were prepared according to Ye et al. (Biochemistry; 31 (1992) pages 11231-11235). To measure the enzyme activity or the enzyme inhibitor action, 70 μl of buffer solution and 10 μl of enzyme solution are incubated for 15 min with 10 μl of a 10% strength (v/v) aqueous dimethyl sulfoxide solution, which optionally contains the enzyme inhibitor. After addition of 10 μl of a 10% strength (v/v) aqueous dimethyl sulfoxide solution which contains 1 mil/L of the substrates, the enzyme reaction is monitored by fluorescence spectroscopy (328 nm (ex)/393 nm(em)). The enzyme activity is shown as the extinction increase/min. The IC50 values listed in Table 2 are determined as those inhibitor concentrations which in each case lead to a 50% inhibition of the enzyme.
(§3) The buffer solution contains 0.05% Brij (Sigma, Deisenhofen, Germany) and also 0.1 mol/L tris/HCl, 0.1 mol/L NaCl, 0.01 mol/L CaCl2 and 0.1 mol/L piperazine-N,N′-bis(2-ethanesulfonic acid) (pH=6.5). The enzyme solution contains 5 μg/ml of one of the enzyme domains prepared according to Ye et al. The substrate solution contains 1 mil/L of the fluorogenic substrate (7-methoxycoumarin-4-yl)acetyl-Pro-Leu-Gly-Leu-3-(2′,4′-dinitrophenyl)-L-2,3-diaminopropionyl-Ala-Arg-NH2 (Bachem, Heidelberg, Germany).

[2] = biological target: T2, neutrophil collagenase (MMP-8) (Homo sapiens, UniProt P22894); assay: Enzyme inhibition of the catalytic domain of neutrophil collagenase (fluorogenic substrate); format: biochemical; settings: 15 min preincubation, pH=6.5, fluorescence 328 nm (ex)/393 nm (em)
T2 construct: enzymatic activity of the catalytic domains of human stromelysin and of neutrophil collagenase; made in house
Procedure: as §1, §2, §3

T2 sequence (P22894 100-262 limits assumed): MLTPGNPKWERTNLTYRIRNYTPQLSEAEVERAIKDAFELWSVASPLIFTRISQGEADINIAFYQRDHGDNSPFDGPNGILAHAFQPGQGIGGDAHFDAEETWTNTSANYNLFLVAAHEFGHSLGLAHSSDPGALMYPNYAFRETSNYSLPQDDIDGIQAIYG
T1 sequence (P08254 100-272 limits assumed): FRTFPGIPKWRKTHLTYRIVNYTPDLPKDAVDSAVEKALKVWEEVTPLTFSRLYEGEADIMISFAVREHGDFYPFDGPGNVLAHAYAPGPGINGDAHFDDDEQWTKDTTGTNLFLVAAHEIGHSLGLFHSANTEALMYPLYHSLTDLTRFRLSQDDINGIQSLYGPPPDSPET

Row | SMILES | IC50 [1] [nM] | IC50 [2] [nM]
1 | O=C(Cc1ccc(Cl)cc1)NCCC[C@H](NS(=O)(=O)c1ccc(-c2ccc(Cl)cc2)cc1)C(=O)O [Example 89] | 30 | 10
2 | Cc1ccc(C(=O)NCCC[C@H](NS(=O)(=O)c2ccc(-c3ccc(Cl)cc3)cc2)C(=O)O)s1 [Example 120] | 20 | 4
3 | Cc1oncc1C(=O)NCCCC[C@@H](NS(=O)(=O)c1ccc(-c2ccc(Cl)cc2)cc1)C(=O)O [Example 4, 4-Chlorobiphenylsulfonyl-N-epsilon-(5-methylisoxazol-4-carbonyl)-Lys-OH] | 90 | 20
4 | CN(C)c1ccc(C(=O)NCCC[C@@H](NS(=O)(=O)c2ccc(-c3ccc(Cl)cc3)cc2)C(=O)O)cc1 [Example 43] | 40 | 20
5 | O=C(NCCC[C@H](NS(=O)(=O)c1ccc(-c2ccc(Cl)cc2)cc1)C(=O)O)C1CSCN1 (stereo partly drawn) [Example 84] | 20 | 4
6 | Cn1cccc1C(=O)NCCC[C@H](NS(=O)(=O)c1ccc(-c2ccc(Cl)cc2)cc1)C(=O)O [Example 154] | 30 | 9
7 | CCCCOc1ccc(C(=O)NCCC[C@H](NS(=O)(=O)c2ccc(-c3ccc(Cl)cc3)cc2)C(=O)O)cc1 [Example 106] | 60 | 30
8 | O=C(NCCC[C@H](NS(=O)(=O)c1ccc(-c2ccc(Cl)cc2)cc1)C(=O)O)c1cccc(F)c1 [Example 95] | 20 | 4
9 | CN(C)c1ccc(-c2ccc(S(=O)(=O)N[C@@H](CCCNC(=O)OC(C)(C)C)C(=O)O)cc2)cc1 [Example 59] | 5 | 1
10 | CC(C)(C)OC(=O)NCCCC[C@@H](NS(=O)(=O)c1ccc(-c2ccc(Cl)cc2)cc1)C(=O)O [Example 2, R-(4-Chlorobiphenylsulfonyl)-Lys(Boc)-OH] | 20 | 6
11 | O=C(O)c1ccccc1S(=O)(=O)NCCC[C@H](NS(=O)(=O)c1ccc(-c2ccc(Cl)cc2)cc1)C(=O)O [Example 76] | 40 | 40
12 | O=C(NCCC[C@H](NS(=O)(=O)c1ccc(-c2ccc(Cl)cc2)cc1)C(=O)O)C1CC1 [Example 62] | 5 | 2
13 | NCCCC[C@H](NS(=O)(=O)c1ccc(-c2ccc(Cl)cc2)cc1)C(=O)O [Example 12] | 60 | 10
14 | CN(C)c1ccccc1C(=O)NCCC[C@H](NS(=O)(=O)c1ccc(-c2ccc(Cl)cc2)cc1)C(=O)O [Example 137] | 20 | 7
15 | O=C(NCCCC[C@H](NS(=O)(=O)c1ccc(-c2ccc(Cl)cc2)cc1)C(=O)O)OCc1ccccc1 [Example 16] | 20 | 10
16 | O=C(NCCC[C@H](NS(=O)(=O)c1ccc(-c2ccc(Cl)cc2)cc1)C(=O)O)c1ccc(Cl)c(Cl)c1 [Example 92] | 40 | 20
17 | COCC(=O)NCCC[C@H](NS(=O)(=O)c1ccc(-c2ccc(Cl)cc2)cc1)C(=O)O [Example 98] | 10 | 3
18 | O=C(/C=C/C1C=NC=N1)NCCC[C@H](NS(=O)(=O)c1ccc(-c2ccc(Cl)cc2)cc1)C(=O)O (stereo partly drawn) [Example 140] | 60 | 20
19 | N#Cc1ccc(C(=O)NCCC[C@H](NS(=O)(=O)c2ccc(-c3ccc(Cl)cc3)cc2)C(=O)O)cc1 [Example 85] | 20 | 5
20 | O=C(NCCC[C@@H](NS(=O)(=O)c1ccc(-c2ccc(Cl)cc2)cc1)C(=O)O)c1ccc(F)cc1 [Example 47] | 10 | 3
21 | O=C(NCCC[C@H](NS(=O)(=O)c1ccc(-c2ccc(Cl)cc2)cc1)C(=O)O)OCc1ccccc1 [Example 15] | 20 | 8
22 | O=C(NCCC[C@H](NS(=O)(=O)c1ccc(-c2ccc(Cl)cc2)cc1)C(=O)O)c1ccccc1C(F)(F)F [Example 129] | 10 | 2
23 | O=C(NCCC[C@H](NS(=O)(=O)c1ccc(-c2ccc(Cl)cc2)cc1)C(=O)O)c1ccc2[nH]cnc2c1 [Example 141] | 10 | 10
24 | O=C(NCCC[C@H](NS(=O)(=O)c1ccc(-c2ccc(Cl)cc2)cc1)C(=O)O)c1ccc(F)c(F)c1 [Example 87] | 30 | 10
25 | CC(C)(C)OC(=O)NCCC[C@H](NS(=O)(=O)c1ccc(-c2ccc(Cl)cc2)cc1)C(=O)O [Example 36] |  | 2

Now from value to compound:

Row | IC50 [1] [nM] | IC50 [2] [nM] | SMILES
26 | 60 | 10 | N/C(=N\[N+](=O)[O-])NCCC[C@H](NS(=O)(=O)c1ccc(-c2ccc(Cl)cc2)cc1)C(=O)O [Example 25]
27 | 30 | 8 | COc1ccc(C(=O)NCCC[C@H](NS(=O)(=O)c2ccc(-c3ccc(Cl)cc3)cc2)C(=O)O)c(OC)c1 [Example 104]
28 | 20 | 7 | O=C(NCCC[C@@H](NS(=O)(=O)c1ccc(-c2ccc(Cl)cc2)cc1)C(=O)O)c1ccc2c(c1)OCO2 [Example 48]
29 | 10 | 3 | O=C(NCCC[C@H](NS(=O)(=O)c1ccc(-c2ccc(Cl)cc2)cc1)C(=O)O)c1ccc(F)cc1 [Example 71]
30 | 50 | 4 | O=C(NCCC[C@H](NS(=O)(=O)c1ccc(-c2ccc(Cl)cc2)cc1)C(=O)O)NS(=O)(=O)c1ccccc1 [Example 5, (4-Chlorobiphenylsulfonyl)-N-delta-(phenylsulfonylamino-carbonyl)-Orn-OH]
31 | 30 | 10 | O=C(O)[C@H](CCCN1C(=O)c2ccc(Cl)cc2C1=O)NS(=O)(=O)c1ccc(-c2ccc(Cl)cc2)cc1 [Example 171]
32 | 4 | 2 | O=C(O)[C@@H](CCCN1Cc2ccccc2C1=O)NS(=O)(=O)c1ccc(-c2ccc(Cl)cc2)cc1 [Example 7, 2-(2R)-(4-Chlorobiphenylsulfonylamino)-5-(1-oxo-1,3-dihydro-isoindol-2-yl)pentanoic acid]
33 | 30 | 8 | N#Cc1ccccc1C(=O)NCCC[C@H](NS(=O)(=O)c1ccc(-c2ccc(Cl)cc2)cc1)C(=O)O [Example 135]
34 | 30 | 5 | NC(=O)NCCCC[C@H](NS(=O)(=O)c1ccc(-c2ccc(Cl)cc2)cc1)C(=O)O [Example 24]
35 | 20 | 4 | O=C(NCCC[C@H](NS(=O)(=O)c1ccc(-c2ccc(Cl)cc2)cc1)C(=O)O)c1cccc(F)c1F [Example 97]
36 | 50 | 7 | NC(=O)NCCC[C@@H](NS(=O)(=O)c1ccc(-c2ccc(Cl)cc2)cc1)C(=O)O [Example 1, (R)-(4-Chlorobiphenylsulfonyl)citrulline]
37 | 70 | 10 | CC(=O)NCSC[C@@H](NS(=O)(=O)c1ccc(-c2ccc(Cl)cc2)cc1)C(=O)O [Example 18]
38 | 20 | 30 | O=C(CC(C(=O)O)c1ccccc1)NCCC[C@@H](NS(=O)(=O)c1ccc(-c2ccc(Cl)cc2)cc1)C(=O)O (single isomer, unassigned) [Example 39]
39 | 20 | 4 | O=C(NCCC[C@H](NS(=O)(=O)c1ccc(-c2ccc(Cl)cc2)cc1)C(=O)O)c1ccc(F)cc1F [Example 86]
40 | 20 | 5 | O=C(CC1CCCCC1)NCCC[C@H](NS(=O)(=O)c1ccc(-c2ccc(Cl)cc2)cc1)C(=O)O [Example 108]
41 | 7 | 3 | O=C(NCCC[C@H](NS(=O)(=O)c1ccc(-c2ccc(Cl)cc2)cc1)C(=O)O)c1ccccc1Cl [Example 83]
